Laboratory results published in ChEMBL document CHEMBL1145929, “Syntheses and binding studies of new [(aryl)(aryloxy)methyl]piperidine derivatives and related compounds as potential antidepressant drugs with high affinity for serotonin (5-HT) and norepinephrine (NE) transporters” (J Med Chem, 2003).

Experiments:
[1] = target: Sodium-dependent serotonin transporter (Rattus norvegicus, UniProt P31652); experiment: Binding affinity to the serotonin transporter (SERT) measured by displacement of [3H]paroxetine in male wistar rats
Sequence of Sodium-dependent serotonin transporter (P31652 whole entry): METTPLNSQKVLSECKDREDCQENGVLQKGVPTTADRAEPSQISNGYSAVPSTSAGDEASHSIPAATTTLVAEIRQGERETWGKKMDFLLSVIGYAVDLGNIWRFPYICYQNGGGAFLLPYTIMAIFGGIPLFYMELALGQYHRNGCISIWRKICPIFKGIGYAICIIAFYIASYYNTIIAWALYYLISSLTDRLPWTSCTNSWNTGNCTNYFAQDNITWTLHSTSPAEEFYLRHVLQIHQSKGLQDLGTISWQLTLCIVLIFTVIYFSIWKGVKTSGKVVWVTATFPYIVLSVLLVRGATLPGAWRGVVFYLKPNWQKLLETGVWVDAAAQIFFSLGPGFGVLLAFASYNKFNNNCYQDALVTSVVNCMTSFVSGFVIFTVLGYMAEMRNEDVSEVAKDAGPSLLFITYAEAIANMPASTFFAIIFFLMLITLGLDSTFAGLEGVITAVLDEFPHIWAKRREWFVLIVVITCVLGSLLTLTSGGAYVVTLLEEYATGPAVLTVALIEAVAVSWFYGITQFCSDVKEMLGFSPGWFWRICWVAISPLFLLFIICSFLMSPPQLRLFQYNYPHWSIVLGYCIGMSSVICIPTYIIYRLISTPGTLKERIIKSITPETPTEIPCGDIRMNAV

[2] = target: 5-hydroxytryptamine receptor 2A (Rattus norvegicus, UniProt P14842); experiment: Binding affinity against 5-hydroxytryptamine 2A receptor by displacement of [3H]-ketanserin from rat prefrontal cerebral cortex mambranes; format: tissue-based, Frontal cortex
Sequence of 5-hydroxytryptamine receptor 2A (P14842 whole entry): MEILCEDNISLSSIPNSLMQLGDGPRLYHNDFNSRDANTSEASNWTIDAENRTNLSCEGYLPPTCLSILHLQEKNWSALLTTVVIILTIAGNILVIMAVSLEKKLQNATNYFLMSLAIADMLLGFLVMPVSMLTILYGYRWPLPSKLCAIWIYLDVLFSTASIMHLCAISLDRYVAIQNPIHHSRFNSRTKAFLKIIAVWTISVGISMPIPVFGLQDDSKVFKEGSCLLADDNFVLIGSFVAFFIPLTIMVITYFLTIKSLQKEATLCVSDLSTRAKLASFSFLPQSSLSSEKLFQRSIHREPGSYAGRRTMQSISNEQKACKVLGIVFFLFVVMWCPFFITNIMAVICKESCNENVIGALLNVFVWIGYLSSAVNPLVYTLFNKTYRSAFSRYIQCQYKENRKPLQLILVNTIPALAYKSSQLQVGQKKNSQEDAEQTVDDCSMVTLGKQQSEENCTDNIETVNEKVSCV

[3] = target: T1, 5-hydroxytryptamine receptor 1A (Rattus norvegicus, UniProt P19327); experiment: Binding affinity against 5-hydroxytryptamine 1A receptor (5-HT1A) by displacement of [3H]8-OH-DPAT from rat hippocampus membranes; format: cell membranes, Membrane
T1 sequence (P19327 whole entry): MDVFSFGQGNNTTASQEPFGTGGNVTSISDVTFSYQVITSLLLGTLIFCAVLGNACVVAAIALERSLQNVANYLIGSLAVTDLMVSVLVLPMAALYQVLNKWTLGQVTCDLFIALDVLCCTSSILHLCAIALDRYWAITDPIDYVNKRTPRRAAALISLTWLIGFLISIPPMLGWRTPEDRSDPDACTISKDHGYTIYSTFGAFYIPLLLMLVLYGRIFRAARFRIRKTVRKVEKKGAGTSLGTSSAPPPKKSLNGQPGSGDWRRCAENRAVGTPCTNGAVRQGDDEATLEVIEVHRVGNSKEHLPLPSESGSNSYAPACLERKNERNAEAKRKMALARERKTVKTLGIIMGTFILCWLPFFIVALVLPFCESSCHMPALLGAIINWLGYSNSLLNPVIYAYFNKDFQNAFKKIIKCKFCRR

`Fc1ccc(C(Oc2ccccc2)C2CCCNC2)cc1` (configuration not stated) was tested, and the Ki [1] was 40.6 nM, the IC50 [2] was over 1000 nM and the IC50 [3] was over 1000 nM.
In the case of `Oc1cc(F)cc(OC(c2ccccc2)C2CCNCC2)c1` (configuration not stated), the Ki [1] is reported as 2 nM, the IC50 [2] is reported as over 1000 nM and the IC50 [3] is reported as over 1000 nM.
In the case of `Ic1ccc(OC(c2ccccc2)C2CCNCC2)cc1` (configuration not stated), the Ki [1] is reported as 20.6 nM, the IC50 [2] is reported as over 1000 nM and the IC50 [3] is reported as over 1000 nM.
With `COc1ccc(OC(c2ccc(F)cc2)C2CCNCC2)cc1` (configuration not stated) the Ki [1] was 0.9 nM, the IC50 [2] was over 1000 nM and the IC50 [3] was over 1000 nM.
`N#Cc1ccc(OC(CC2CCNCC2)c2ccc(F)cc2)cc1` (configuration not stated) gave a Ki [1] of 16.9 nM, an IC50 [2] of over 1000 nM and an IC50 [3] of over 1000 nM.
For `COc1ccc(OC(c2ccc(F)cc2)C2CCCNC2)cc1` (configuration not stated), the Ki [1] was 20.8 nM, the IC50 [2] was over 1000 nM and the IC50 [3] was over 1000 nM.
`Fc1ccc(C(Oc2ccc(Cl)c(Cl)c2)C2CCCNC2)cc1` (configuration not stated) was tested, and the Ki [1] was 32.2 nM, the IC50 [2] was over 1000 nM and the IC50 [3] was over 1000 nM.
Work on `Brc1cccc(OC(c2ccccc2)C2CCNCC2)c1` (configuration not stated) yielded a Ki [1] of 10 nM, an IC50 [2] of over 1000 nM and an IC50 [3] of over 1000 nM.
For `Fc1ccc(C(Oc2ccc3c(c2)OCO3)C2CCCNC2)cc1` (configuration not stated), the Ki [1] was 4.2 nM, the IC50 [2] was over 1000 nM and the IC50 [3] was over 1000 nM.
`Fc1ccc(C(Oc2ccc(C(F)(F)F)cc2)C2CCCNC2)cc1` (configuration not stated) showed a Ki [1] of 26.2 nM, an IC50 [2] of over 1000 nM and an IC50 [3] of over 1000 nM.
`Fc1ccc(OC(c2ccc(Cl)cc2)C2CCNCC2)cc1` (configuration not stated) gave a Ki [1] of 7.5 nM, an IC50 [2] of over 1000 nM and an IC50 [3] of over 1000 nM.
`Cc1c(F)cccc1OC(c1ccccc1)C1CCNCC1` (configuration not stated) showed a Ki [1] of 5.3 nM, an IC50 [2] of over 1000 nM and an IC50 [3] of over 1000 nM.
Work on `Fc1ccc(C(Oc2ccc(Cl)cc2)C2CCCNC2)cc1` (configuration not stated) yielded a Ki [1] of 13.9 nM, an IC50 [2] of over 1000 nM and an IC50 [3] of over 1000 nM.
Compound `Clc1ccc(C(Oc2ccccc2)C2CCNCC2)cc1` (configuration not stated) has a Ki [1] of 19.4 nM, an IC50 [2] of over 1000 nM and an IC50 [3] of over 1000 nM.
With `COc1ccc(OC(CC2CCNCC2)c2ccccc2)cc1` (configuration not stated) the Ki [1] was 47 nM, the IC50 [2] was over 1000 nM and the IC50 [3] was over 1000 nM.
`FC(F)(F)c1ccc(OC(c2ccccc2)C2CCNCC2)cc1` (configuration not stated) gave a Ki [1] of 17.1 nM, an IC50 [2] of over 1000 nM and an IC50 [3] of over 1000 nM.
`Clc1ccccc1OC(c1ccccc1)C1CCNCC1` (configuration not stated) gave a Ki [1] of 8.2 nM, an IC50 [2] of over 1000 nM and an IC50 [3] of over 1000 nM.
`N#Cc1cc(F)cc(OC(c2ccccc2)C2CCNCC2)c1` (configuration not stated) was tested, and the Ki [1] was 2.6 nM, the IC50 [2] was over 1000 nM and the IC50 [3] was over 1000 nM.
Work on `Fc1ccc(OC(c2ccc(F)cc2)C2CCNCC2)cc1` (configuration not stated) yielded a Ki [1] of 0.9 nM, an IC50 [2] of over 1000 nM and an IC50 [3] of over 1000 nM.
For `Oc1ccc(OC(c2ccccc2)C2CCNCC2)cc1F` (configuration not stated), the Ki [1] was 21.3 nM, the IC50 [2] was over 1000 nM and the IC50 [3] was over 1000 nM.
`COc1cc2c(cc1OC)CN(CCC(Oc1ccccc1C(F)(F)F)c1ccccc1)CC2` (configuration not stated) was tested, and the Ki [1] was 134 nM, the IC50 [2] was over 1000 nM and the IC50 [3] was over 1000 nM.
In the case of `Cc1ccc(C(Oc2cccc(F)c2)C2CCNCC2)cc1` (configuration not stated), the Ki [1] is reported as 14.1 nM, the IC50 [2] is reported as over 1000 nM and the IC50 [3] is reported as over 1000 nM.
`Fc1ccc(C(Oc2cccc3ccccc23)C2CCCNC2)cc1` (configuration not stated) gave a Ki [1] of 21.5 nM, an IC50 [2] of over 1000 nM and an IC50 [3] of over 1000 nM.
`N#Cc1ccc(OC(c2ccccc2)C2CCNCC2)cc1Cl` (configuration not stated) showed a Ki [1] of 3.9 nM, an IC50 [2] of over 1000 nM and an IC50 [3] of over 1000 nM.
`c1ccc(OC(c2ccccc2)C2CCNCC2)cc1` (configuration not stated) was tested, and the Ki [1] was 2.3 nM, the IC50 [2] was over 1000 nM and the IC50 [3] was over 1000 nM.
With `Fc1ccc(OC(c2ccccc2)C2CCNCC2)cc1` (single isomer, unassigned; (-)) the IC50 [2] was over 1000 nM and the IC50 [3] was over 1000 nM.
With `Fc1cccc(OC(c2ccccc2)C2CCNCC2)c1` (stereo in doubt; 15j) the IC50 [2] was over 1000 nM and the IC50 [3] was over 1000 nM.
For `Clc1cccc(OC(c2ccccc2)C2CCNCC2)c1` (stereo in doubt; 15l), the IC50 [2] was over 1000 nM and the IC50 [3] was over 1000 nM.
Compound `Fc1cccc(OC(c2cccc(F)c2)C2CCNCC2)c1` (stereo in doubt; (-)-15u) has an IC50 [2] of over 1000 nM and an IC50 [3] of over 1000 nM.
`CNCCC(Oc1ccccc1OC)c1ccccc1` (configuration not stated) [NISOXETINE] gave an IC50 [2] of over 1000 nM and an IC50 [3] of over 1000 nM.
Work on `Fc1ccc([C@@H]2CCNC[C@H]2COc2ccc3c(c2)OCO3)cc1` [PAROXETINE] yielded an IC50 [3] of over 1000 nM.
`COc1ccc(C(CN(C)C)C2(O)CCCCC2)cc1` (configuration not stated) [VENLAFAXINE] was tested, and the IC50 [3] was over 1000 nM.
